Key:
RARα [1] = target: T1, RARα (Homo sapiens, UniProt P10276); experiment: Binding, RARα (ligand binding assay)
T1 sequence (P10276 1-462): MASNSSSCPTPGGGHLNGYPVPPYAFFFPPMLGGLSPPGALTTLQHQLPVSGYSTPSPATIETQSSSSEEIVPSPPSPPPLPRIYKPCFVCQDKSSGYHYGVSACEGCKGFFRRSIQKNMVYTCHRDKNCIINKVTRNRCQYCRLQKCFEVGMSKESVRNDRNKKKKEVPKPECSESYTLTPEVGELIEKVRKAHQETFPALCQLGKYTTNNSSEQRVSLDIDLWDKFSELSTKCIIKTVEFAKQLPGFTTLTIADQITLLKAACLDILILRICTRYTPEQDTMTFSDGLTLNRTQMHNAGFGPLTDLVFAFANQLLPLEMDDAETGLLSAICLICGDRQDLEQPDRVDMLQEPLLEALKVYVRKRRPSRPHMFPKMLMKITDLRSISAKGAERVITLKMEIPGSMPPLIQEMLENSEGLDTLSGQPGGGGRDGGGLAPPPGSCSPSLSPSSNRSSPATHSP
Text: (§1) The RARγ agonist selectivity of a compound can be determined by routine ligand binding assays known to one of skill in the art such as described in C. Apfel et al., Proc. Nat.

RARγ [2] = target: T2, RARγ (Homo sapiens, UniProt P13631); experiment: Binding, RARγ (ligand binding assay)
T2 sequence (P13631 1-454): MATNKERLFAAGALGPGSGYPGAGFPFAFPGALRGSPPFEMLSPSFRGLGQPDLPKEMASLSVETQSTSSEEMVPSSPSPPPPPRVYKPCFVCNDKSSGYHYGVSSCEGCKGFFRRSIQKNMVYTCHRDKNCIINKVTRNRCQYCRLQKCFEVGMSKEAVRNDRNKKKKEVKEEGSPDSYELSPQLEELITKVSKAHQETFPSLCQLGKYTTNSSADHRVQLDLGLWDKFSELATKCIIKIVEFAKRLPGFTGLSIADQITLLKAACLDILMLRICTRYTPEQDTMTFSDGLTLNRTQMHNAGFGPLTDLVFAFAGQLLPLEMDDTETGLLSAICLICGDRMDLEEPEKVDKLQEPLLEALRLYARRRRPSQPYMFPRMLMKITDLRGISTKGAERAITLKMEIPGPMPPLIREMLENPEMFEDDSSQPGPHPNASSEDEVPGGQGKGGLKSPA
Text: as §1

RARβ [3] = target: T3, RARβ (Homo sapiens, UniProt P10826); experiment: Transactivation, RARβ; type: cell-based
T3 sequence (P10826 1-455): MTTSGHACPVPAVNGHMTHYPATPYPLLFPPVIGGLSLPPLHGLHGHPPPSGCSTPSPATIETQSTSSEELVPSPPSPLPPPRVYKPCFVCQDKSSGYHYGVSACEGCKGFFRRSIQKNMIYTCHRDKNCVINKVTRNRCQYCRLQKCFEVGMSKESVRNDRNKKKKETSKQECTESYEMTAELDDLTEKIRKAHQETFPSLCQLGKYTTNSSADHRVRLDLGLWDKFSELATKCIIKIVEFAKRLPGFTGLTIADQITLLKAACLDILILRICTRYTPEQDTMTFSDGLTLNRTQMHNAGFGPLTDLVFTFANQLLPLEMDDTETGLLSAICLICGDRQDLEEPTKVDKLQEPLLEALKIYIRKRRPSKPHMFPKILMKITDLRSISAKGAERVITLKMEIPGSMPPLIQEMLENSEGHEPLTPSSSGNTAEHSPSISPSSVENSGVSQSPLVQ
Text: (§2) As used herein, the term "transactivation" refers to the ability of a retinoid to activate the transcription of a gene where the gene transcription is initiated by the binding of a ligand to the particular retinoic acid receptor being tested, i.e., RARα, RARβ, or RARγ. Determining the ability of a compound to transactivate a retinoic acid receptor may be performed by methods known to those of skill in the art. […] Apfel etal., Proc. Nat.

RARβ [4] = target: T3, RARβ; experiment: Binding, RARβ (ligand binding assay)
Text: as §1

[5] = Plasma triglyceride levels in rats; type: in vivo
Procedure: Experimental emphysema was induced in rats as described in Example 2. Three (3) weeks post injury animals were treated with vehicle (Capmul solution) or retinoids prepared in Capmul and dosed orally at 1, 3, and 10 mg/kg body weight. Animals were treated for 14 days prior to termination of study. Lung harvest and blood collection was performed as described in Example 2.
Quantitation of triglycerides contained in rat plasma was performed after using established procedures in a contact clinical laboratory facility. Briefly, plasma triglycerides were converted to dihdroxyacetone and H2 O2, by sequential treatment of plasma with lipase and glycerokinase according directions described by manufacturer of triglycerides/GPO kit (Boehringer Mannheim #1488872). H2 02 was quantitated calorimetrically in a Hitachi 911 Chemistry Analyzer. In rats normal triglyceride levels are 75-175 mg/dl.
Dosage was at 1 mg/kg/PO daily for two weeks. […] Therefore, it appears that RARα selective activity is linked to elevated triglyceride levels.

[6] = tested on: elastase-induced emphysema; experiment: Alveolar repair in rat model of elastase-induced emphysema, intraperitoneal; type: in vivo, male Sprague Dawley rats; design: Alveolar Area: unit not given here; conditions: for % Repair / Alveolar Area: 0.5 mg/kg ip once daily, from 21 days post injury, 14 days; for Alveolar Area: naive 1637 +/- 153, elastase + vehicle 3570 +/- 319; for alveolar repair (in words): elastase-treated rats, 0.5 mg/kg ip; for light micrographs of lung sections (in words): rat lung damaged by elastase and then treated, compared to normal rat lung
Procedure: Animals were divided into treatment groups of approximately eight. […] Three weeks post injury ATRA or a RAR selective agonist was dissolved in DMSO (20 mg/ml) and stored at -20 C. Fresh working stocks were prepared fresh daily by dilution in corn oil to a final concentration of 2 mg/ml. […] Control groups were challenged with elastase and 21 days later treated with Vehicle (DMSO/PBS) for 14 days. Animals were sacrificed 24 hours after the last dose of by exsanguination under deep anesthesia. Blood was collected at time of exanguination for analysis of changes in blood chemistry from respective treatments. The lungs were inflated with 10% neutral buffered formalin by intratracheal instillation at a constant rate (1 ml/gram body mass/min). The lung was excised and immersed in fixative for 24 hours prior to processing. Standard methods were used to prepare 5 um paraffin sections. Sections were stained with Hematoxylin and Eosin (H%E). Computerized Morphometric analysis was performed to determine the average alveolar size and alveolar number.

RARα [7] = target: T1, RARα; experiment: Transactivation, RARα; type: cell-based
Text: as §2

RARγ [8] = target: T2, RARγ; experiment: Transactivation, RARγ; type: cell-based
Text: as §2

experimental emphysema = experiment: Alveolar repair in rat experimental emphysema, oral dosing; type: in vivo, rats; conditions: 1 mg/kg/PO daily for two weeks
Procedure: Three (3) weeks post injury animals were treated with vehicle (Capmul solution) or retinoids prepared in Capmul and dosed orally at 1, 3, and 10 mg/kg body weight. Animals were treated for 14 days prior to termination of study.
Dosage was at 1 mg/kg/PO daily for two weeks.

alveolar septation = conditions: postnatal administration; newborn rats; cited from earlier work
tropoelastin gene = experiment: RAR transactivation of steady state tropoelastin gene in normal human lung fibroblasts (CCD-16Lu); type: cell-based; conditions: for Tropo-elastin Expression: CCD-16Lu, 1×10^-7 M, RT-PCR, triplicate, untreated control 30.90; for tropoelastin gene induction (in words): human lung fibroblasts, compared to the control
Procedure: Transactivation of the tropoelastin gene in normal human lung fibroblasts (CCD-16Lu) was performed as described below. Cells were grown to confluence at which time fresh media +/- ATRA or selective retiniod was added to the basal culture. ATRA and/or selective retiniods were used at a concentration of 1×10^-7 M. The cell layer was lysed using a guanidinium-based buffer (TRIZOL/Sigma) for RNA extraction and analysis. Amplification of tropoelastin and GAPDH RNA was performed by standard quantitative RT-PCR (TAQMAN, Perken/Elmer) using appropriate selective primers. Tropo-elastin gene expression was normalized to the expression of standard house-keeping gene (GAPDH).
Samples were run in triplicate.

RXR receptors = conditions: cited from earlier work
[9] = plasma, 1 mg/kg/PO daily for two weeks
[10] = plasma, 1 mg/kg/PO daily for two weeks, normal rat 75-175 mg/dl

IC50 (RARγ [2]; Table III) [nM] | EC50 (RARγ [8]; Table III) [nM] | Compound | triglyceride levels (in words) [5, 9] | [Triglyceride] [5, 10] [mg/dL] | % Repair [6] [%] | Alveolar Area [6] | alveolar repair (in words) [6] | % Repair (experimental emphysema) [%] | other results
2410 | 15 | CC1(C)CCOc2ccc(C(=O)/C=C/c3ccc(C(=O)O)cc3)cc21 [RAR Agonist 6] | do not cause elevation in the triglyceride levels | 140 | > 70 | 1909 +/- 207 | markedly induce alveolar repair | 39 | IC50 (RARα [1]; Table III): 3100 nM; EC50 (RARβ [3]; Table III): 16 nM; IC50 (RARβ [4]; Table III): 2.1 µM; EC50 (RARα [7]; Table III): 10 µM
 |  | C[C@@H]1C[C@H]2[C@@H]3CCC4=CC(=O)C=C[C@]4(C)[C@@]3(F)[C@@H](O)C[C@]2(C)[C@@]1(O)C(=O)CO [dexamethasone] |  |  |  |  |  |  | number of alveoli / septation in lungs (in words) (alveolar septation): inhibits the process of septation in the lungs
 |  | CC1=C(/C=C/C(C)=C/C=C/C(C)=C\C(=O)O)C(C)(C)CCC1 [RAR Agonist 8, reference compound] | either on the high end of normal or elevated | 178 |  |  |  | 57.1 | 
300 | 160 | CC(C)COc1ccc(-c2ccc3cc(C(=O)O)ccc3c2)cc1C(C)(C)C [RAR Agonist 2, reference compound] |  |  | < 20 | 3653 +/- 550 | do not induce alveolar repair |  | IC50 (RARα [1]; Table II): 1000 nM; IC50 (RARγ [2]; Table II): 300 nM; EC50 (RARβ [3]; Table II): 39 nM; IC50 (RARβ [4]; Table II): 0.028 µM; light micrographs of lung sections (in words) [6]: did not reverse the change caused by elastase treatment; Tropo-elastin Expression (tropoelastin gene): 1.85 (Elastin/GAPDH) × 10^5; tropoelastin gene induction (in words) (tropoelastin gene): did not induce the tropoelastin gene; EC50 (RARα [7]; Table II): 2 µM; EC50 (RARγ [8]; Table II): 160 nM
10000 | 10000 | O=C(O)c1ccc(NC(=O)c2cc(C(F)(F)F)cc(C(F)(F)F)c2)cc1 [RAR Agonist 1, reference compound] |  |  | < 20 | 3058 +/- 160 | do not induce alveolar repair |  | IC50 (RARα [1]; Table II): 300 nM; IC50 (RARγ [2]; Table II): 10000 nM; EC50 (RARβ [3]; Table II): 10000 nM; IC50 (RARβ [4]; Table II): 10 µM; light micrographs of lung sections (in words) [6]: did not reverse the change caused by elastase treatment; Tropo-elastin Expression (tropoelastin gene): 13.93 (Elastin/GAPDH) × 10^5; tropoelastin gene induction (in words) (tropoelastin gene): did not induce the tropoelastin gene; EC50 (RARα [7]; Table II): 0.0165 µM; EC50 (RARγ [8]; Table II): 10000 nM
 |  | CC1=C(/C=C/C(C)=C\C=C\C(C)=C\C(=O)O)C(C)(C)CCC1 [9-cis retinoic acid] |  |  |  |  |  |  | binding to RXR receptors (in words) (RXR receptors): is the natural ligand
 |  | CC1=C(/C=C/C(C)=C\C=C\C(C)=C\C(=O)O)C(C)(C)CCC1 [RAR Agonist 10, reference compound] | either on the high end of normal or elevated | 273 |  |  |  | 58.3 | 
770 | 104 | CCCCCC(=O)c1cc2c(cc1/C=C/c1ccc(C(=O)O)cc1)C(C)(C)CCC2(C)C [RAR Agonist 5] | do not cause elevation in the triglyceride levels | 119 | 56 | 2502 +/- 243 | markedly induce alveolar repair | 40 | IC50 (RARα [1]; Table III): 2300 nM; EC50 (RARβ [3]; Table III): 10000 nM; IC50 (RARβ [4]; Table III): 5.4 µM; EC50 (RARα [7]; Table III): 10 µM
 |  | CC1(C)CCC(C)(C)c2cc(C(=O)Nc3ccc(C(=O)O)cc3)ccc21 [RAR Agonist 9] |  |  | < 20 | 3323 +/- 406 | do not induce alveolar repair |  | 
 |  | O=C(O)c1ccc2cc(-c3ccc(O)c(C45CC6CC(CC(C6)C4)C5)c3)ccc2c1 [RAR Agonist 7] |  |  | > 70 | 1817 +/- 241 | markedly induce alveolar repair | 66 | EC50 (RARβ [3]; Table III): 2300 nM; IC50 (RARβ [4]; Table III): 4.6 µM; [Triglyceride] ([5]; rat, in vivo, po, 1 mg/kg): 114 mg/dL; triglyceride levels (in words) ([5]; rat, in vivo, po, 1 mg/kg): do not cause elevation in the triglyceride levels
 |  | CC1=C(/C=C/C(C)=C/C=C/C(C)=C/C(=O)O)C(C)(C)CCC1 [retinoic acid] |  |  |  |  |  |  | number of alveoli / septation in lungs (in words) (alveolar septation): increases the number of alveoli in rats

Source: patent US6300350A, “Treatment of emphysema using RARy selective retinoid agonists” (priority 2000, dated 2001)
